Measured values taken from PMC8191578, “Targeting the TLR2 Receptor With a Novel Thymopentin-Derived Peptide Modulates Immune Responses” (Frontiers in Immunology, 2021).
Marks after values point to notes of the source that are not given here. Where no end group is shown, it is not given here.

Experiments:
[1] = Ex vivo stability in human serum; format: in vitro ADME; details: human serum (Sigma), lipids removed by centrifugation, pre-incubated 15 min at 37°C, peptide 10 µg/mL, HPLC, logarithm-linear regression, mean ± SD, n=5
Protocol: Human serum was purchased from Sigma (St. Louis, MO, USA). […] The half-lives of CATH2, TP5, and CbTP (10 µg/mL) were evaluated in vitro following incubation at 37°C in human serum at different time points. The samples were collected into prechilled tubes containing 1 mL of acidic acetone (hydrochloric acid/acetone/H2O, 1:40:5, by volume) and centrifuged at 2,000 ×g for 20 min at 4°C.
The obtained precipitates were dried in vacuo, after which the dried precipitates were dissolved in 0.5 mL of 1 M acetic acid. The peptide analysis was carried out according to the protocol for the study of TP5 using HPLC ([26]). The half-lives of the target peptides were calculated by a logarithm-linear regression analysis of the peptide concentrations.

recombinant TLR2 = biological target: T1, recombinant TLR2 (Homo sapiens, UniProt O60603); assay: Surface plasmon resonance binding to immobilized TLR2; details: SPR, ProteOn XPR36, GLH chip, 25°C, PBS with 1% Tween 20; CbTP 0-10 μM; 1:1 model; read-out: association rate constant Ka
T1 construct: purchased R&D Systems
Protocol: Surface plasmon resonance (SPR) experiments were performed using a ProteOn XPR36 instrument (Bio-Rad, Hercules, CA, USA) with a ProteOn GLH sensor chip (Bio-Rad) at 25°C. The running buffer (PBS with 1% Tween 20) was continuously passed into reaction chamber. An SPR sensing chip with recombinant TLR2 (R&D Systems, Minneapolis, MN, USA) was immobilized by amino coupling to capture CbTP, as described in the manufacturer’s protocol. The binding affinity of CbTP to the TLR2-covered surface was examined in varying concentrations of the CbTP peptide (0, 1.25, 2.5, 5, and 10 μM). The running buffer was injected into the empty channels as a reference. To regenerate the chip surface at the end of each experiment, 10 mM Gly-HCl buffer (pH 2.5) was injected. Data analysis was conducted using ProteOn manager software (version 2.0). The binding curves were processed for the start injection alignment and baseline. The reference-subtracted sensorgram was then fitted to the curves labeling a homogeneous 1:1 model and protein surface data were grouped together to fit the association (K a) and dissociation (K d) rate constants. The equilibrium dissociation constant (KD) for the peptide-TLR2 interaction was calculated using the following equation: […]

T1 sequence (O60603 21-784, species assumed): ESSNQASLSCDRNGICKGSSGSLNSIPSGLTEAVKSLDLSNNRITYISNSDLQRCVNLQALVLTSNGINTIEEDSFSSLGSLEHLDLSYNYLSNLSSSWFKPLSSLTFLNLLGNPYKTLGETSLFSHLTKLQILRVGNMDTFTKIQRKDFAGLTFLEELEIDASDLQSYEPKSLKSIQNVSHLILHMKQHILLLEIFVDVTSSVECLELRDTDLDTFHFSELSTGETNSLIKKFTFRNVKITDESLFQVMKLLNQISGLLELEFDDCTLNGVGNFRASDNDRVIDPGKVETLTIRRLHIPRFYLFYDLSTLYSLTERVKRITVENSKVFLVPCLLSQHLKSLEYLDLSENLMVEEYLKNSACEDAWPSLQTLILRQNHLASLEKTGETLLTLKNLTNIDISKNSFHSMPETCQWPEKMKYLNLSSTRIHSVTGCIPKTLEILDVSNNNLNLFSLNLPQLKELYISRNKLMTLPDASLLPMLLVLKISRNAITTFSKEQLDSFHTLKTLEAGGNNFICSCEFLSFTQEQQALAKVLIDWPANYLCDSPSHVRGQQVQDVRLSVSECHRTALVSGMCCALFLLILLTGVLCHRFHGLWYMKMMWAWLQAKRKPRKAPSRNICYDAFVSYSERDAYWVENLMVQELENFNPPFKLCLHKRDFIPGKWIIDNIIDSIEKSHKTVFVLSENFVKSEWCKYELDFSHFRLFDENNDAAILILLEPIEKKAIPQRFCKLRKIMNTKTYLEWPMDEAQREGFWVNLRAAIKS

| Sequence | t1/2 in human serum [1] | kon (recombinant TLR2) [M⁻¹ s⁻¹] |
| --- | --- | --- |
| RFGRFLRKIRRFRPKVTITIQGSARFG [CATH2, Cathelicidin-2, reference compound] | 302 ± 34.5^a min | – |
| RFGRFLRKIRRFRRKDVY [CbTP] | 353 ± 41.3^a min | 3.61e+08 |
